Reference: patent US20260256792A1, “TREATMENT OF CHRONIC SPONTANEOUS URTICARIA BY ADMINISTERING (R)-2-[3-[4-AMINO-3-(2-FLUORO-4-PHENOXY-PHENYL)PYRAZOLO[3,4-D]PYRIMIDIN-1-YL]PIPERIDINE-1-CARBONYL]-4-METHYL-4-[4-(OXETAN-3-YL)PIPERAZIN-1-YL]PENT-2-ENENITRILE” (priority 2023, published 2026)

System: moderate-to-severe chronic spontaneous urticaria (CSU)
Experiment: Phase 2 CSU study: itch severity score over 7 days (ISS7)
Assay type: in vivo, human
Conditions: 400 mg BID; for Change from Baseline in ISS7 at Week 12, LS Mean / Change from Baseline in ISS7 at Week 12, LS Mean Diff vs. placebo / Change from Baseline in ISS7 at Week 12, Mean: Omalizumab-naïve population
From the text: The study comprises a 12 week, randomized, double-blind, placebo-controlled, multi-center, dose-ranging efficacy and safety phase, followed by a 40 week open label extension (OLE) phase (see FIG. 1). The study consists of three phases and an optional OLE phase. […] Clinically, CSU is characterized by the spontaneous and recurrent appearance of pruritic hives. The proposed primary endpoints were the UAS7 at Week 12 in EU and EU reference countries and the ISS7 in the US. Regardless of where a participant was from, all assessments were the same. The UAS7 score is a composite score containing both the HSS7 and the ISS7. This allowed a global assessment of the two key components of urticaria: hives and itch. […] The UAS is a validated PRO measure. […] The daily UAS scores range from 0 to 6 point/day. […] Patients were to complete the UAS using the e-diary. […] The following secondary endpoints were to be analyzed using the same approach as for the primary endpoint: • Change from baseline in UAS7 at Week 4 • Change from baseline in UAS7 at Week 12 (for US and US reference countries) • Change from baseline in ISS7 at Week 12 (except US and US reference countries) • Change from baseline in HSS7 at Week 12

[1] = Baseline Eosinophils (10^9/L) <0.150
[2] = Baseline Eosinophils (10^9/L) <0.165 (Median)
[3] = Baseline Eosinophils (10^9/L) <0.3
[4] = Baseline Eosinophils (10^9/L) ≥0.150
[5] = Baseline Eosinophils (10^9/L) ≥0.165 (Median)
[6] = Baseline Eosinophils (10^9/L) ≥0.3
[7] = Baseline H1-antihistamines dose 1-fold
[8] = Baseline H1-antihistamines dose 2 to 4-fold standard dose
[9] = Baseline Total IgE (IU/mL) <100
[10] = Baseline Total IgE (IU/mL) <300
[11] = Baseline Total IgE (IU/mL) ≥100
[12] = Baseline Total IgE (IU/mL) ≥300
[13] = Duration of disease (years) 2-10
[14] = Duration of disease (years) >10

## CC(C)(C=C(C#N)C(=O)N1CCC[C@@H](n2nc(-c3ccc(Oc4ccccc4)cc3F)c3c(N)ncnc32)C1)N1CCN(C2COC2)CC1 [rilzabrutinib, (R)-2-[3-[4-amino-3-(2-fluoro-4-phenoxy-phenyl)pyrazolo[3,4-d]pyrimidin-1-yl]piperidine-1-carbonyl]-4-methyl-4-[4-(oxetan-3-yl)piperazin-1-yl]pent-2-enenitrile]
Age group (years) <44 (Median)
  Change from Baseline in ISS7 at Week 12, LS Mean: −7.05
  Change from Baseline in ISS7 at Week 12, LS Mean Diff vs. placebo: −2.58
  Change from Baseline in ISS7 at Week 12, Mean: −5.97
Age group (years) <65
  Change from Baseline in ISS7 at Week 12, LS Mean: −7.37
  Change from Baseline in ISS7 at Week 12, LS Mean Diff vs. placebo: −1.71
  Change from Baseline in ISS7 at Week 12, Mean: −7.17
Age group (years) ≥44 (Median)
  Change from Baseline in ISS7 at Week 12, LS Mean: −8.10
  Change from Baseline in ISS7 at Week 12, LS Mean Diff vs. placebo: −1.50
  Change from Baseline in ISS7 at Week 12, Mean: −8.62
Age group (years) ≥65
  Change from Baseline in ISS7 at Week 12, Mean: −13.00
Baseline BHRA BHRA+
  Change from Baseline in ISS7 at Week 12, LS Mean: −8.42
  Change from Baseline in ISS7 at Week 12, LS Mean Diff vs. placebo: −3.03
  Change from Baseline in ISS7 at Week 12, Mean: −9.57
Baseline BHRA BHRA−
  Change from Baseline in ISS7 at Week 12, LS Mean: −6.59
  Change from Baseline in ISS7 at Week 12, Mean: −6.75
Baseline BMI (kg/m^2) ≥30
  Change from Baseline in ISS7 at Week 12, LS Mean Diff vs. placebo: −0.57
[1]
  Change from Baseline in ISS7 at Week 12, LS Mean: −6.93
  Change from Baseline in ISS7 at Week 12, LS Mean Diff vs. placebo: −0.15
[2]
  Change from Baseline in ISS7 at Week 12, LS Mean: −7.37
  Change from Baseline in ISS7 at Week 12, LS Mean Diff vs. placebo: −0.86
  Change from Baseline in ISS7 at Week 12, Mean: −5.92
[3]
  Change from Baseline in ISS7 at Week 12, LS Mean: −7.78
  Change from Baseline in ISS7 at Week 12, LS Mean Diff vs. placebo: −2.31
  Change from Baseline in ISS7 at Week 12, Mean: −7.62
[4]
  Change from Baseline in ISS7 at Week 12, LS Mean: −7.91
  Change from Baseline in ISS7 at Week 12, LS Mean Diff vs. placebo: −3.92
[5]
  Change from Baseline in ISS7 at Week 12, LS Mean: −7.62
  Change from Baseline in ISS7 at Week 12, LS Mean Diff vs. placebo: −3.53
  Change from Baseline in ISS7 at Week 12, Mean: −8.88
[6]
  Change from Baseline in ISS7 at Week 12, LS Mean: −6.15
  Change from Baseline in ISS7 at Week 12, LS Mean Diff vs. placebo: −1.29
[7]
  Change from Baseline in ISS7 at Week 12, LS Mean: −8.44
  Change from Baseline in ISS7 at Week 12, LS Mean Diff vs. placebo: −1.60
  Change from Baseline in ISS7 at Week 12, Mean: −9.03
[8]
  Change from Baseline in ISS7 at Week 12, LS Mean: −6.73
  Change from Baseline in ISS7 at Week 12, LS Mean Diff vs. placebo: −3.25
  Change from Baseline in ISS7 at Week 12, Mean: −6.20
Baseline ISS7 score <13
  Change from Baseline in ISS7 at Week 12, LS Mean: −5.14
  Change from Baseline in ISS7 at Week 12, LS Mean Diff vs. placebo: −2.42
  Change from Baseline in ISS7 at Week 12, Mean: −5.28
Baseline ISS7 score ≥13
  Change from Baseline in ISS7 at Week 12, LS Mean: −7.87
  Change from Baseline in ISS7 at Week 12, LS Mean Diff vs. placebo: −2.14
  Change from Baseline in ISS7 at Week 12, Mean: −8.03
[9]
  Change from Baseline in ISS7 at Week 12, LS Mean: −8.29
  Change from Baseline in ISS7 at Week 12, LS Mean Diff vs. placebo: −4.06
  Change from Baseline in ISS7 at Week 12, Mean: −8.52
[10]
  Change from Baseline in ISS7 at Week 12, LS Mean: −7.94
  Change from Baseline in ISS7 at Week 12, LS Mean Diff vs. placebo: −3.43
  Change from Baseline in ISS7 at Week 12, Mean: −7.93
[11]
  Change from Baseline in ISS7 at Week 12, LS Mean: −6.91
  Change from Baseline in ISS7 at Week 12, LS Mean Diff vs. placebo: −0.88
  Change from Baseline in ISS7 at Week 12, Mean: −6.57
[12]
  Change from Baseline in ISS7 at Week 12, LS Mean: −7.17
  Change from Baseline in ISS7 at Week 12, LS Mean Diff vs. placebo: −0.62
  Change from Baseline in ISS7 at Week 12, Mean: −6.20
Baseline UAS7 score <28
  Change from Baseline in ISS7 at Week 12, LS Mean: −5.40
  Change from Baseline in ISS7 at Week 12, LS Mean Diff vs. placebo: −2.22
  Change from Baseline in ISS7 at Week 12, Mean: −6.29
Baseline UAS7 score ≥28
  Change from Baseline in ISS7 at Week 12, LS Mean: −8.64
  Change from Baseline in ISS7 at Week 12, LS Mean Diff vs. placebo: −2.04
  Change from Baseline in ISS7 at Week 12, Mean: −8.21
[13]
  Change from Baseline in ISS7 at Week 12, LS Mean: −6.89
  Change from Baseline in ISS7 at Week 12, LS Mean Diff vs. placebo: 0.14
  Change from Baseline in ISS7 at Week 12, Mean: −8.05
Duration of disease (years) <2
  Change from Baseline in ISS7 at Week 12, LS Mean: −8.54
  Change from Baseline in ISS7 at Week 12, LS Mean Diff vs. placebo: −4.89
  Change from Baseline in ISS7 at Week 12, Mean: −7.53
[14]
  Change from Baseline in ISS7 at Week 12, LS Mean: 5.36
  Change from Baseline in ISS7 at Week 12, LS Mean Diff vs. placebo: 9.04
  Change from Baseline in ISS7 at Week 12, Mean: 1.67
Ethnicity Hispanic
  Change from Baseline in ISS7 at Week 12, LS Mean: −5.19
  Change from Baseline in ISS7 at Week 12, LS Mean Diff vs. placebo: 1.82
  Change from Baseline in ISS7 at Week 12, Mean: −4.42
Ethnicity Non-Hispanic
  Change from Baseline in ISS7 at Week 12, LS Mean: −8.43
  Change from Baseline in ISS7 at Week 12, LS Mean Diff vs. placebo: −3.96
  Change from Baseline in ISS7 at Week 12, Mean: −8.59
Gender Female
  Change from Baseline in ISS7 at Week 12, Mean: −6.99
Gender Male
  Change from Baseline in ISS7 at Week 12, Mean: −8.17
History of angioedema No
  Change from Baseline in ISS7 at Week 12, LS Mean: −7.93
  Change from Baseline in ISS7 at Week 12, LS Mean Diff vs. placebo: −2.59
History of angioedema Yes
  Change from Baseline in ISS7 at Week 12, LS Mean: −6.26
  Change from Baseline in ISS7 at Week 12, LS Mean Diff vs. placebo: −1.01
  Change from Baseline in ISS7 at Week 12, Mean: −4.04
ITT population
  ISS7 at Week 12, Mean: 7.61
  ISS7 at Week 12, Median: 7.00
  ISS7 change from baseline at Week 12, Mean: −8.21
  ISS7 change from baseline at Week 12, Median: −8.00
ITT population, ANCOVA
  ISS7 change from baseline at Week 12, LS Mean: −8.06 points
  ISS7 change from baseline at Week 12, LS Mean Diff vs. placebo: −1.75
ITT population, following one week of treatment
  LS mean change in ISS7 from baseline (see Table 29): −5.23 points
Race All the Others
  Change from Baseline in ISS7 at Week 12, LS Mean: −6.99
